These results are taken from patent US20250376483A1, “PRODRUGS OF PAN-KRAS INHIBITORS” (Mirati Therapeutics, Inc., priority 2022, published 2025).

A short description of series [1]: Whole Blood Stability Assay (mouse whole blood). As to conditions: CD-1 mouse blood, EDTA-K2, final conc. 2 μM, 37° C., 0-120 min; for half-life at 2 μM: male, fresh whole blood, read-out: Mouse Whole Blood Stability t1/2. Type of series: in vitro ADME. As for the experimental part:
Whole Blood Stability Assay
This Example illustrates that exemplary compounds of the present invention is cleavage in mouse whole blood.
(§1) Test Compounds and Stock Solutions: Stock Conc. 10 mM; Final Conc. 2 μM
(§2) Test Compound and Control Working Solution Preparation:
• Intermediate solution: 5 μL of compound stock solution (10 mM in dimethyl sulfoxide (DMSO)) were diluted with […] of DMSO (intermediate solution concentration: 1 mM, 100% DMSO) • Propantheline bromide (control) intermediate solution: 5 μL of propantheline stock solution (10 mM in ultra-pure water) were diluted with 45 μL of ultra-pure water (intermediate solution concentration: 1 mM) • Working solution 1: 20 μL of test compound intermediate solution (1 mM) were diluted with 180 μL of 45% ACN/H2O (working solution concentration: […], 40.5% ACN, 10% DMSO) • Working solution 2: 20 μL of control intermediate solution (1 mM) were diluted with 180 μL of 45% ACN/H2O (working solution concentration: 100 μM, 40.5% ACN, 10% DMSO) • Species/Matrix: CD-1 Mouse Blood • No. of Individuals: n>3 Male • Anticoagulant Used: EDTA-K2
• The fresh blood was collected on the day of experiment and pre-warmed in a water bath at 37° C. • Using an Apricot automation workstation, 98 μL/well of blank blood were added to all 96-well reaction plates (Blank, T0, T10, T30, T60 and T120). • An Apricot automation workstation was used to add 2 μL/well of working solution (100 μM) to all reaction plates except Blank (T0, T10, T30, T60 and T120). • All reaction plates containing mixtures of compound and blood were incubated at 37° C. in water bath. • The reaction plates were incubated at 37° C., and timer was started. • At the end of incubation, mixed 100 μL water with 100 μL spiked blood samples, then added 800 μL of stop solution (200 ng/mL tolbutamide and 200 ng/mL labetalol in ACN) to precipitate protein. Mixed thoroughly. • Each plate was sealed and shaken for 20 minutes. • After shaking, each plate was centrifuged at 4000 rpm and 4° C. for 20 minutes. • After centrifugation, an Apricot automation workstation was used to transfer 150 μL of supernatant from each reaction plate to its corresponding bioanalysis plate. • Each bioanalysis plate was submitted to LC-MS/MS analysis.
• The % remaining of test compound after incubation in blood was calculated using following equation:
(§3) [formula] • where PAR is the peak area ratio of analyte versus internal standard (IS) • The appointed incubation time points are TO (0 min), Tn (n=0, 10, 30, 60 and 120 min)

The nature of series [2]: Plasma Stability Assay (human plasma). Type of series: in vitro ADME. As to conditions: both sexes; pooled human plasma, heparin, final conc. 2 μM, 37° C., 0-120 min; read-out: Human Plasma Stability t1/2. The protocol:
This Example illustrates that exemplary compounds of the present invention is cleavage in human plasma.
as §1, §2
• Test compound intermediate solution: 10 μL of compound stock solution (10 mM in dimethyl sulfoxide (DMSO)) were diluted with 90 μL of DMSO (intermediate solution concentration: 1 mM, 100% DMSO) • Control intermediate solution: 10 μL of control stock solution (10 mM in dimethyl sulfoxide (DMSO)) were diluted with 90 μL of DMSO (intermediate solution concentration: 1 mM, 100% DMSO) • Species/Matrix: Human Plasma • No. of Individuals: 3 Male & 3 Female • Anticoagulant Used: Heparin
• The pooled frozen plasma was thawed in a water bath at 37° C. prior to experiment. Plasma was centrifuged at 4000 rpm for 5 min and the clots were removed if any. • Using an Apricot automation workstation, 98 μL/well of blank plasma were added to all 96-well reaction plates. (Blank, T0, T10, T30, T60 and T120) • An Apricot automation workstation was used to add 2 μL/well of working solution (100 μM) to all reaction plates except Blank. (T0, T10, T30, T60 and T120) • All reaction plates containing mixtures of compound and plasma were incubated at 37° C. in water bath. • The reaction plates were incubated at 37° C., and timer was started. • At the end of incubation, added 500 μL of stop solution (200 ng/mL tolbutamide and 200 ng/mL labetalol in ACN) to precipitate protein. Mixed thoroughly. • Each plate was sealed and shaken for 20 minutes. • After shaking, each plate was centrifuged at 4000 rpm and 4° C. for 20 minutes • After centrifugation, an Apricot automation workstation was used to transfer 50 μL supernatant into 100 μL HPLC water. • Each bioanalysis plate was sealed and shaken for 10 minutes prior to LC-MS/MS analysis Data Analysis • The % remaining of test compound after incubation in blood was calculated using following equation:
as §3

`CCc1c(F)ccc2cc(OC(C)=O)cc(-c3ncc4c(N5C[C@@H]6C[C@H](C5)[C@H](O)C6)nc(OC[C@@]56CCCN5C[C@H](F)C6)nc4c3F)c12` [Example 1, 5-ethyl-6-fluoro-4-(8-fluoro-2-(((2R,7aS)-2-fluorotetrahydro-1H-pyrrolizin-7a(5H)-yl)methoxy)-4-((1R,5R,6R)-6-hydroxy-3-azabicyclo[3.2.1]octan-3-yl)pyrido[4,3-d]pyrimidin-7-yl)naphthalen-2-yl acetate]: the half-life at 2 μM in series [1] is 3 min; in series [2], 23 min.

In the case of `CCC(=O)Oc1cc(-c2ncc3c(N4C[C@@H]5C[C@H](C4)[C@H](O)C5)nc(OC[C@@]45CCCN4C[C@H](F)C5)nc3c2F)c2c(CC)c(F)ccc2c1` [Example 2, 5-ethyl-6-fluoro-4-(8-fluoro-2-(((2R,7aS)-2-fluorotetrahydro-1H-pyrrolizin-7a(5H)-yl)methoxy)-4-((1R,5R,6R)-6-hydroxy-3-azabicyclo[3.2.1]octan-3-yl)pyrido[4,3-d]pyrimidin-7-yl)naphthalen-2-yl propionate], in series [1], the “Mouse Whole Blood Stability t1/2” value is listed as 1 min. For the same compound, the half-life at 2 μM in series [2] was found to be 13 min. `CCc1c(F)ccc2cc(OC(=O)C(C)C)cc(-c3ncc4c(N5C[C@@H]6C[C@H](C5)[C@H](O)C6)nc(OC[C@@]56CCCN5C[C@H](F)C6)nc4c3F)c12` [Example 3, 5-ethyl-6-fluoro-4-(8-fluoro-2-(((2R,7aS)-2-fluorotetrahydro-1H-pyrrolizin-7a(5H)-yl)methoxy)-4-((1R,5R,6R)-6-hydroxy-3-azabicyclo[3.2.1]octan-3-yl)pyrido[4,3-d]pyrimidin-7-yl)naphthalen-2-yl isobutyrate]: the half-life at 2 μM in series [1] turned out to be 3 min; in series [2] it was 27 min.

As for `CCc1c(F)ccc2cc(OC(=O)C3CC3)cc(-c3ncc4c(N5C[C@@H]6C[C@H](C5)[C@H](O)C6)nc(OC[C@@]56CCCN5C[C@H](F)C6)nc4c3F)c12` [Example 4, 5-ethyl-6-fluoro-4-(8-fluoro-2-(((2R,7aS)-2-fluorotetrahydro-1H-pyrrolizin-7a(5H)-yl)methoxy)-4-((1R,5R,6R)-6-hydroxy-3-azabicyclo[3.2.1]octan-3-yl)pyrido[4,3-d]pyrimidin-7-yl)naphthalen-2-yl cyclopropanecarboxylate], the half-life at 2 μM in series [1] is 5 min; in series [2] it was 17 min.

Consider `CCc1c(F)ccc2cc(OC(=O)C(C)(C)C)cc(-c3ncc4c(N5C[C@@H]6C[C@H](C5)[C@H](O)C6)nc(OC[C@@]56CCCN5C[C@H](F)C6)nc4c3F)c12` [Example 5, 5-ethyl-6-fluoro-4-(8-fluoro-2-(((2R,7aS)-2-fluorotetrahydro-1H-pyrrolizin-7a(5H)-yl)methoxy)-4-((1R,5R,6R)-6-hydroxy-3-azabicyclo[3.2.1]octan-3-yl)pyrido[4,3-d]pyrimidin-7-yl)naphthalen-2-yl pivalate], for which the half-life at 2 μM in series [1] is 2 min; in series [2], 67 min. In the same order, the values of `CCc1c(F)ccc2cc(OC(=O)N(C)C)cc(-c3ncc4c(N5C[C@@H]6C[C@H](C5)[C@H](O)C6)nc(OC[C@@]56CCCN5C[C@H](F)C6)nc4c3F)c12` [Example 6, 5-ethyl-6-fluoro-4-(8-fluoro-2-(((2R,7aS)-2-fluorotetrahydro-1H-pyrrolizin-7a(5H)-yl)methoxy)-4-((1R,5R,6R)-6-hydroxy-3-azabicyclo[3.2.1]octan-3-yl)pyrido[4,3-d]pyrimidin-7-yl)naphthalen-2-yl dimethylcarbamate] are greater than 289 min and greater than 289 min. As for `CCc1c(F)ccc2cc(OC(=O)N3CCCCC3)cc(-c3ncc4c(N5C[C@@H]6C[C@H](C5)[C@H](O)C6)nc(OC[C@@]56CCCN5C[C@H](F)C6)nc4c3F)c12` [Example 7, 5-ethyl-6-fluoro-4-(8-fluoro-2-(((2R,7aS)-2-fluorotetrahydro-1H-pyrrolizin-7a(5H)-yl)methoxy)-4-((1R,5R,6R)-6-hydroxy-3-azabicyclo[3.2.1]octan-3-yl)pyrido[4,3-d]pyrimidin-7-yl)naphthalen-2-yl piperidine-1-carboxylate], the half-life at 2 μM in series [1] and in series [2] was greater than 289 min each time.

As to `CCc1c(F)ccc2cc(OC(=O)OC)cc(-c3ncc4c(N5C[C@@H]6C[C@H](C5)[C@H](O)C6)nc(OC[C@@]56CCCN5C[C@H](F)C6)nc4c3F)c12` [Example 9, 5-ethyl-6-fluoro-4-(8-fluoro-2-(((2R,7aS)-2-fluorotetrahydro-1H-pyrrolizin-7a(5H)-yl)methoxy)-4-((1R,5R,6R)-6-hydroxy-3-azabicyclo[3.2.1]octan-3-yl)pyrido[4,3-d]pyrimidin-7-yl)naphthalen-2-yl methyl carbonate], the “Mouse Whole Blood Stability t1/2” value in series [1] came out at 1 min. Moreover, in series [2], the half-life at 2 μM amounted to 9 min. For the compound `CCc1c(F)ccc2cc(OC(=O)N(CCOC)CCOC)cc(N3CCc4c(nc(OC[C@@]56CCCN5C[C@H](F)C6)nc4N4CCC[C@]5(C4)NC(=O)NC5=O)C3)c12` [Example 65, 4-(4-((R)-2,4-dioxo-1,3,7-triazaspiro[4.5]decan-7-yl)-2-(((2R,7aS)-2-fluorotetrahydro-1H-pyrrolizin-7a(5H)-yl)methoxy)-5,8-dihydropyrido[3,4-d]pyrimidin-7(6H)-yl)-5-ethyl-6-fluoronaphthalen-2-yl bis(2-methoxyethyl)carbamate], the half-life at 2 μM in series [2] was greater than 289 min. As to `CCc1c(F)ccc2cc(OC(C)=O)cc(N3CCc4c(nc(OCC56CCCN5C/C(=C\F)C6)nc4N4CCC[C@]5(C4)NC(=O)NC5=O)C3)c12` (stereo partly drawn) [Example 72, 4-(4-(CAN-2,4-dioxo-1,3,7-triazaspiro[4.5]decan-7-yl)-2-(((S,Z)-2-(fluoromethylene)tetrahydro-1H-pyrrolizin-7a(5H)-yl)methoxy)-5,8-dihydropyrido[3,4-d]pyrimidin-7(6H)-yl)-5-ethyl-6-fluoronaphthalen-2-yl acetate], in series [1], the half-life at 2 μM came out at 2 min. In the case of `CCc1c(F)ccc2cc(OC(=O)N3CCCCC3)cc(N3CCc4c(nc(OC[C@@]56CCCN5C/C(=C\F)C6)nc4N4CCC[C@]5(C4)NC(=O)NC5=O)C3)c12` [Example 73, 4-(4-(CAN-2,4-dioxo-1,3,7-triazaspiro[4.5]decan-7-yl)-2-(((S,Z)-2-(fluoromethylene)tetrahydro-1H-pyrrolizin-7a(5H)-yl)methoxy)-5,8-dihydropyrido[3,4-d]pyrimidin-7(6H)-yl)-5-ethyl-6-fluoronaphthalen-2-yl piperidine-1-carboxylate], the half-life at 2 μM in series [1] turned out to be 147 min.

For the compound `CCc1c(F)ccc2cc(OC(=O)C(C)C)cc(N3CCc4c(nc(OCC56CCCN5C/C(=C\F)C6)nc4N4CCC[C@]5(C4)NC(=O)NC5=O)C3)c12` (stereo partly drawn) [Example 76, 4-(4-(CAN-2,4-dioxo-1,3,7-triazaspiro[4.5]decan-7-yl)-2-(((S,Z)-2-(fluoromethylene)tetrahydro-1H-pyrrolizin-7a(5H)-yl)methoxy)-5,8-dihydropyrido[3,4-d]pyrimidin-7(6H)-yl)-5-ethyl-6-fluoronaphthalen-2-yl isobutyrate], the half-life at 2 μM in series [1] came out at 4 min.
